Earlier results as cited in US6238865A, “Simple and efficient method to label and modify 3'-termini of RNA using DNA polymerase and a synthetic template with defined overhang nucleotides” (Chen; Guangtian, priority 1998, dated 2001).

Target: poly(A) polymerase (Saccharomyces cerevisiae, UniProt P29468)
Conditions: cited from Lingner et al., J. Biol. Chem. 266:8741-8746, 1991, read-out: Km for ATP

poly(A) polymerase, sequence (P29468 whole entry): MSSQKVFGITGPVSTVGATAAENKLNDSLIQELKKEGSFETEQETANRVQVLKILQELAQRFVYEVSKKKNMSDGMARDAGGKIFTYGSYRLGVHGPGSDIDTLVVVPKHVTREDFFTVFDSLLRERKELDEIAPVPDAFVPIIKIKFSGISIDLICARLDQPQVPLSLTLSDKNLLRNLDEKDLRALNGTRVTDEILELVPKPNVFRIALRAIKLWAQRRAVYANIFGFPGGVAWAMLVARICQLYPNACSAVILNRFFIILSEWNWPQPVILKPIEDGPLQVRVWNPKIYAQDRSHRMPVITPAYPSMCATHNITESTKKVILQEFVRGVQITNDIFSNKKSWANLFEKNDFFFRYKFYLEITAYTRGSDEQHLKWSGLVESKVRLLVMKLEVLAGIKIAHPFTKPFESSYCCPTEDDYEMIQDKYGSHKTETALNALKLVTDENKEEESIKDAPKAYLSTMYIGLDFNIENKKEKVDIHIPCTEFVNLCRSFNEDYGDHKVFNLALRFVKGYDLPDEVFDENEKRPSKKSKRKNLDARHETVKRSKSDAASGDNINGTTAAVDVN

Q: Which Km does the source give for `Nc1ncnc2c1ncn2[C@@H]1O[C@H](COP(=O)(O)OP(=O)(O)OP(=O)(O)O)[C@@H](O)[C@H]1O` [ATP] here?
A: 50 µM
